Measurements reported in patent US10544148B2, “Pesticidally active tetracyclic heterocyclic derivatives with sulphur containing substituents” (Syngenta Participations AG, priority 2014, dated 2020).

Legend:
Type in all cases: in vivo
[1] = tested on: Euschistus heros (Neotropical Brown Stink Bug); assay: Example B3: Euschistus heros, sprayed soybean leaf, N-2 nymphs; conditions: 120 h, application rate of 200 ppm, 5 days after infestation, read-out: effect in at least one of the two categories (mortality or growth inhibition)
Procedure: Example B3: Euschistus heros (Neotropical Brown Stink Bug)
Soybean leaf on agar in 24-well microtiter plates were sprayed with aqueous test solutions prepared from 10′000 ppm DMSO stock solutions. After drying the leaf were infested with N-2 nymphs. The samples were assessed for growth inhibition in comparison to untreated samples 5 days after infestation.

[2] = tested on: Myzus persicae (Green Peach Aphid); assay: Example B5: Myzus persicae, sprayed sunflower leaf discs, mixed ages; conditions: foliar, 144 h, application rate of 200 ppm, aphid population of mixed ages, 6 days after infestation
Procedure: Example B5: Myzus persicae (Green Peach Aphid)
(§1) Sunflower leaf discs were placed on agar in a 24-well microtiter plate and sprayed with aqueous test solutions prepared from 10′000 ppm DMSO stock solutions. After drying, the leaf discs were infested with an aphid population of mixed ages. The samples were assessed for mortality 6 days after infestation.

[3] = tested on: Plutella xylostella (Diamond Back Moth); assay: Example B6: Plutella xylostella, treated artificial diet, L2 larvae; conditions: 120 h, application rate of 200 ppm, 5 days after infestation, read-out: effect in at least one of the two categories (mortality or growth inhibition)
Procedure: Example B6: Plutella xylostella (Diamond Back Moth)
(§2) 24-well microtiter plates with artificial diet were treated with aqueous test solutions prepared from 10′000 ppm DMSO stock solutions by pipetting. After drying, the plates were infested with L2 larvae (10 to 15 per well). The samples were assessed for mortality and growth inhibition in comparison to untreated samples 5 days after infestation.

[4] = tested on: Spodoptera littoralis (Egyptian Cotton Leaf Worm); assay: Example B7: Spodoptera littoralis, sprayed cotton leaf discs, L1 larvae; conditions: foliar, 72 h, application rate of 200 ppm, 3 days after infestation, read-out: control (at least one of mortality, anti-feedant effect, and growth inhibition)
Procedure: Example B7: Spodoptera littoralis (Egyptian Cotton Leaf Worm)
Cotton leaf discs were placed on agar in 24-well microtiter plates and sprayed with aqueous test solutions prepared from 10′000 ppm DMSO stock solutions. After drying the leaf discs were infested with five L1 larvae. The samples were assessed for mortality, anti-feedant effect, and growth inhibition in comparison to untreated samples 3 days after infestation. Control of Spodoptera littoralis by a test sample is when at least one of mortality, anti-feedant effect, and growth inhibition is higher than the untreated sample.

[5] = tested on: Diabrotica balteata (Corn Root Worm); assay: Example B2: Diabrotica balteata, sprayed maize sprouts, L2 larvae; conditions: 96 h, application rate of 200 ppm, 4 days after infestation
Procedure: Example B2: Diabrotica balteata (Corn Root Worm)
as §2, with “Maize sprouts, placed on an agar layer in 24-well” for “24-well”, “plates” for “plates with artificial diet”, “spraying.” for “pipetting.”, “(6” for “(10”, “10” for “15”, “4” for “5”

[6] = tested on: Spodoptera littoralis (Egyptian Cotton Leaf Worm); assay: Example B8: Spodoptera littoralis, systemic test, compound in agar taken up by lettuce roots; conditions: 144 h, test rate of 12.5 ppm, systemic via lettuce roots, 6 days after infestation, read-out: effect in at least one of the three categories (mortality, anti-feedancy, or growth inhibition)
From the text: Example B8: Spodoptera littoralis (Egyptian Cotton Leaf Worm)
Test compounds were applied by pipette from 10′000 ppm DMSO stock solutions into 24-well plates and mixed with agar. Lettuce seeds were placed on the agar and the multi well plate was closed by another plate which contains also agar. After 7 days the roots have absorbed the compound and the lettuce has grown into the lid plate. The lettuce leafs were now cut off into the lid plate. Spodoptera eggs were pipetted through a plastic stencil on a humid gel blotting paper and the plate closed with it. The samples were assessed for mortality, anti-feedant effect and growth inhibition in comparison to untreated samples 6 days after infestation.

[7] = tested on: Frankliniella occidentalis (Western Flower Thrips); assay: Example B4: Frankliniella occidentalis, sprayed sunflower leaf discs, mixed ages; conditions: foliar, 168 h, application rate of 200 ppm, population of mixed ages, 7 days after infestation
Procedure: Example B4: Frankliniella occidentalis (Western Flower Thrips)
as §1, with “in” for “in a”, “plates” for “plate”, “[…]” for “10′000 ppm”, “drying” for “drying,”, “a Frankliniella” for “an aphid”, “7” for “6”

[8] = tested on: Bemisia tabaci (Cotton White fly); assay: Example B1: Bemisia tabaci, sprayed cotton leaf discs, adult mortality; conditions: foliar, 144 h, application rate of 200 ppm, adult white flies, 6 days after incubation
Procedure: Example B1: Bemisia tabaci (Cotton White fly)
Cotton leaf discs were placed on agar in 24-well microtiter plates and sprayed with aqueous test solutions prepared from 10′000 ppm DMSO stock solutions. After drying the leaf discs were infested with adult white flies. The samples were checked for mortality 6 days after incubation.

[9] = tested on: Thrips tabaci (Onion Thrips); assay: Example B10: Thrips tabaci, sprayed sunflower leaf discs, mixed ages; conditions: foliar, 144 h, application rate of 200 ppm, thrips population of mixed ages, 6 days after infestation
Procedure: Example B10: Thrips tabaci (Onion Thrips)
as §1, with “in” for “in a”, “plates” for “plate”, “drying” for “drying,”, “a thrips” for “an aphid”

[10] = tested on: Tetranychus urticae (Two-Spotted Spider Mite); assay: Example B9: Tetranychus urticae, sprayed bean leaf discs, mixed population; conditions: foliar, 192 h
Procedure: Example B9: Tetranychus urticae (Two-Spotted Spider Mite)
Bean leaf discs on agar in 24-well microtiter plates were sprayed with aqueous test solutions prepared from 10′000 ppm DMSO stock solutions. After drying the leaf discs were infested with a mite population of mixed ages. The samples were assessed for mortality on mixed population (mobile stages) 8 days after infestation.

CCS(=O)(=O)c1cc(-c2cc(F)cc(F)c2)cnc1-c1nc2cc(C(F)(F)F)nnc2n1C [P1, 6-[5-(3,5-difluorophenyl)-3-ethylsulfonyl-2-pyridyl]-7-methyl-3-(trifluoromethyl)imidazo[4,5-c]pyridazine]
≥ 80%: percent effect (mortality or growth inhibition) at 200 ppm [1] | mortality at 200 ppm [2] | percent effect (mortality or growth inhibition) at 200 ppm [3] | mortality at 200 ppm [4] | mortality at 200 ppm [5] | percent control (mortality, anti-feedancy or growth inhibition) at 12.5 ppm [6] | mortality at 200 ppm [7] | mortality at 200 ppm [8] | mortality at 200 ppm [9]

CCS(=O)(=O)c1cc(-n2ccc(C(F)(F)F)n2)cnc1-c1nc2cc(C(F)(F)F)nnc2n1C [P2, 6-[3-ethylsulfonyl-5-[3-(trifluoromethyl)pyrazol-1-yl]-2-pyridyl]-7-methyl-3-(trifluoromethyl)imidazo[4,5-c]pyridazine]
≥ 80%: percent effect (mortality or growth inhibition) at 200 ppm [1] | mortality at 200 ppm [2] | percent effect (mortality or growth inhibition) at 200 ppm [3] | mortality at 200 ppm [4] | mortality at 200 ppm [5] | mortality at 200 ppm [8] | mortality at 200 ppm [9]

CCS(=O)(=O)c1cc(-c2ccc(C(F)(F)F)cc2)cnc1-c1nc2cc(C(F)(F)F)nnc2n1C [P3]
≥ 80%: percent effect (mortality or growth inhibition) at 200 ppm [1] | mortality at 200 ppm [2] | percent effect (mortality or growth inhibition) at 200 ppm [3] | mortality at 200 ppm [4] | mortality at 200 ppm [5] | mortality at 200 ppm [7]

CCSc1cc(-c2ccc(C(F)(F)F)cc2)ccc1-c1nc2cc(C(F)(F)F)nnc2n1C [P4, 6-[2-ethylsulfanyl-4-[4-(trifluoromethyl)phenyl]phenyl]-7-methyl-3-(trifluoromethyl)imidazo[4,5-c]pyridazine]
≥ 80%: percent effect (mortality or growth inhibition) at 200 ppm [3] | mortality at 200 ppm [4] | mortality at 200 ppm [5]

CCS(=O)(=O)c1cc(-c2ccc(C(F)(F)F)cc2)ccc1-c1nc2cc(C(F)(F)F)nnc2n1C [P5]
≥ 80%: percent effect (mortality or growth inhibition) at 200 ppm [3] | mortality at 200 ppm [4] | mortality at 200 ppm [5] | mortality at 200 ppm [10]
